These results are taken from patent publication US11780830B2, “Triazolone derivatives or salts thereof and pharmaceutical compositions comprising the same” (YUHAN CORPORATION, priority 2018, dated 2023).

What all share (type): biochemical
Assay [1] addresses T1, recombinant human VAP-1 (Homo sapiens, UniProt Q16853).
T1 construct: purchased R&D systems
T1 sequence (Q16853 1-763): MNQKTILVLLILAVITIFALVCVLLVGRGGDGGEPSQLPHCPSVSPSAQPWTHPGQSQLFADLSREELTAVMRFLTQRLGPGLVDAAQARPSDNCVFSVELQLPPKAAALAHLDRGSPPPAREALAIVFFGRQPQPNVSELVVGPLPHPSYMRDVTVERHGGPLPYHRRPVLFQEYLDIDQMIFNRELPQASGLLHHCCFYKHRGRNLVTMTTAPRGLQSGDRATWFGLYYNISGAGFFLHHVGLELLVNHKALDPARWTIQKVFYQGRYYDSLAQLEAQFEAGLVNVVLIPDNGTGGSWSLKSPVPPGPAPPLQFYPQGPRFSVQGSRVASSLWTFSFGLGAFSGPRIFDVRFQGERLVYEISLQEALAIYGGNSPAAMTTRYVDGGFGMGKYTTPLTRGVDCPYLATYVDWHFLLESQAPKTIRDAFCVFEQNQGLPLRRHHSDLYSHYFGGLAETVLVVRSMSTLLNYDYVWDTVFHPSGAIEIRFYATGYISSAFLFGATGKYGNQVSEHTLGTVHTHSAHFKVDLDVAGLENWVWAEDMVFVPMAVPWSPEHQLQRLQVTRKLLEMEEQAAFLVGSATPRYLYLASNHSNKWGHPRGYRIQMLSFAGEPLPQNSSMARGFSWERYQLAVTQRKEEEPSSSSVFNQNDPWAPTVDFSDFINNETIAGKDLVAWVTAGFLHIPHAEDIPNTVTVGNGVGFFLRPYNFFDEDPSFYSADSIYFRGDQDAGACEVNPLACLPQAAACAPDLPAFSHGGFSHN
In words: Activity on recombinant human VAP-1, HRP-coupled Amplex Red hydrogen peroxide assay. The note with it: substrate 1 mM benzylamine; compound incubated with enzyme at 37° C. for 30 minutes; pH 7.4; read-out: Inhibitory Activity (IC50, nM) human VAP-1. The gist of the method:
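Enzyme in 50 mM sodium phosphate pH 7.4 preincubated with compound 30 min at 37 °C, then 1 mM benzylamine, 200 µM Amplex Red and 1 U/mL HRP added. H2O2-derived resorufin fluorescence (ex 544/em 590 nm) followed over 1–2 h; signal-rate decrease versus DMSO control, 8-point curve, four-parameter logistic IC50.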

Assay [2] concerns the target T2, recombinant human MAO-A (monoamine oxidase-A) (Homo sapiens, UniProt P21397).
T2 construct: purchased Sigma-Aldrich
T2 sequence (P21397 1-527): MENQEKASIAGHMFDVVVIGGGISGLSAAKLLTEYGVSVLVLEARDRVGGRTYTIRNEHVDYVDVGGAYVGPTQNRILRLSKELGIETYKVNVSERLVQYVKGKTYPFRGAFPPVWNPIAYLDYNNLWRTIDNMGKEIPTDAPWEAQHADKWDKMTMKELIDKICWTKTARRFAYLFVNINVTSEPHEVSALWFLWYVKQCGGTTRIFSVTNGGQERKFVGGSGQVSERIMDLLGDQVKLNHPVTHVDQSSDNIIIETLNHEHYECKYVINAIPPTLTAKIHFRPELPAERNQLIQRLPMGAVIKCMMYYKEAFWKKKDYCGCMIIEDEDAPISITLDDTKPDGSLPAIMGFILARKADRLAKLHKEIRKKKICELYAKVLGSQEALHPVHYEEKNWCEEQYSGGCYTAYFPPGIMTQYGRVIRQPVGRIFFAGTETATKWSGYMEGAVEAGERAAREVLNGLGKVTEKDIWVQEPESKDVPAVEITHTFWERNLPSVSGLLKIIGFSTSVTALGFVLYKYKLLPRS
In words: Activity on recombinant human MAO-A, method similar to the VAP-1 assay. The note with it: substrate 0.5 mM tyramine; read-out: Inhibitory Activity (IC50, nM) MAO-A. In outline:
(§1)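 Enzyme preincubated with compound 30 min at 37 °C in 50 mM sodium phosphate pH 7.4, final DMSO below 1%. Substrate was 0.5 mM tyramine for MAO-A and 1 mM benzylamine for MAO-B, with 200 uM Amplex Red and 1 U/mL HRP. H2O2-coupled resorufin fluorescence (ex 544/em 590) followed over 1–2 h; 8-point 4-parameter IC50.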

Assay [3] addresses T3, recombinant human MAO-B (monoamine oxidase-B) (Homo sapiens, UniProt P27338).
T3 construct: purchased Sigma-Aldrich
T3 sequence (P27338 1-520): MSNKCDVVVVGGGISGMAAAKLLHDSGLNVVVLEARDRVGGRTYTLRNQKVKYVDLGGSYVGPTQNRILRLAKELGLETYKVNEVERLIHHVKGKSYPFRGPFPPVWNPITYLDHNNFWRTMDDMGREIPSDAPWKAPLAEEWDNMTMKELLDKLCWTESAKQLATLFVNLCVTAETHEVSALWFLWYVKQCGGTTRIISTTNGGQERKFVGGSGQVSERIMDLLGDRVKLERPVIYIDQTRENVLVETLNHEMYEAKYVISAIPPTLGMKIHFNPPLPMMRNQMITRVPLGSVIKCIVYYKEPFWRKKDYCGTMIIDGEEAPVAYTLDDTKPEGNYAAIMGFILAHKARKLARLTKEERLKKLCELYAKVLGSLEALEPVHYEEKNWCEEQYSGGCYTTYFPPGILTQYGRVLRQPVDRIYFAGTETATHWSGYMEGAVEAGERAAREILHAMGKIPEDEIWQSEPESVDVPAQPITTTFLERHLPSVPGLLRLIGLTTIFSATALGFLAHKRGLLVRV
Put plainly: Activity on recombinant human MAO-B, method similar to the VAP-1 assay. The note with it: substrate 1 mM benzylamine; read-out: Inhibitory Activity (IC50, nM) MAO-B. The gist of the method:
as §1

Assay [4] deals with T4, recombinant human DAO (diamine oxidase) (Homo sapiens, UniProt P19801).
T4 construct: purchased R&D systems
T4 sequence (P19801 20-751): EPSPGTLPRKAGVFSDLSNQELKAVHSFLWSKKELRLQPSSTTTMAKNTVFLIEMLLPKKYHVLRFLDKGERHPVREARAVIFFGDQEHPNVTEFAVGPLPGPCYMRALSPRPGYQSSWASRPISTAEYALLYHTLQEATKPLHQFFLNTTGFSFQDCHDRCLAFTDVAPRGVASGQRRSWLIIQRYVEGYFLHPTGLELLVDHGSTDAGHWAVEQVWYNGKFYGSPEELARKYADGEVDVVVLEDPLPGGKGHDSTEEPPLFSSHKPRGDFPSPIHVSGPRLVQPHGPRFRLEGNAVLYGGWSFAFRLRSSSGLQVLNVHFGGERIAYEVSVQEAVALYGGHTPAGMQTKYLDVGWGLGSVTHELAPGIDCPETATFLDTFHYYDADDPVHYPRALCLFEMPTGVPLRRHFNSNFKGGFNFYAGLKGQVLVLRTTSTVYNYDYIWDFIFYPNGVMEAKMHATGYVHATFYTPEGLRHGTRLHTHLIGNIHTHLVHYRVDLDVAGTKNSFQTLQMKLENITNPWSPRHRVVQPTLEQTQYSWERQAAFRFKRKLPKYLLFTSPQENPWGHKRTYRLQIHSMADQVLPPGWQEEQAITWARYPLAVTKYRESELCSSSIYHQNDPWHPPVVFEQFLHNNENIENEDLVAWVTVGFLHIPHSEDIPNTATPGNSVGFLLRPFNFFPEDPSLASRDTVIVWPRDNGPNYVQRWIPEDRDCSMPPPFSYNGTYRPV
In words: Activity on recombinant human DAO, method similar to the VAP-1 assay. The note with it: substrate 1 mM putrescine; read-out: Inhibitory Activity (IC50, nM) DAO. The gist of the method:
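Inhibition of recombinant human diamine oxidase (DAO, R&D systems) was assessed by the same approach as the VAP-1 assay, using 1 mM putrescine as substrate. Hydrogen peroxide formed was detected through an HRP-coupled Amplex Red reaction yielding fluorescent resorufin, read at 544 nm excitation and 590 nm emission. IC50 values came from four-parameter logistic fitting in GraphPad Prism.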

Counter-ions that a name gives are not always drawn. Some results are limits rather than exact numbers.

What is called IC50 is the concentration at which inhibition is half-maximal. As to `NC/C(=C\F)Cn1ncn(Cc2cc3cc(-c4ccc(C(F)(F)F)nc4)ccc3s2)c1=O` [Example 209, 2-[(2E)-2-(aminomethyl)-3-fluoroprop-2-en-1-yl]-4-({5-[6-(trifluoromethyl)pyridin-3-yl]-1-benzothiophen-2-yl}methyl)-2,4-dihydro-3H-1,2,4-triazol-3-one], the IC50 in assay [1] was 2.3 nM; in assay [2], more than 100000 nM; in assay [3] it was 990 nM; in assay [4], 1500 nM.

For the compound `NC/C(=C/F)Cn1ncn(Cc2ccc(Br)s2)c1=O` [Example 1, 2-[(2Z)-2-(aminomethyl)-3-fluoroprop-2-en-1-yl]-4-[(5-bromothiophen-2-yl)methyl]-2,4-dihydro-3H-1,2,4-triazol-3-one], the IC50 in assay [1] turned out to be 5.7 nM; in assay [2], 18000 nM; in assay [3] it was 14 nM; in assay [4], 3020 nM.

`CN1CCOc2cc(-c3ccc(Cn4cnn(C/C(=C/F)CN)c4=O)s3)ccc21` [Example 103, 2-[(2E)-2-(aminomethyl)-3-fluoroprop-2-en-1-yl]-4-[5-(4-methyl-3,4-dihydro-2H-1,4-benzoxazin-7-yl)thiophen-2-yl]methyl-2,4-dihydro-3H-1,2,4-triazol-3-one hydrochloride]: the IC50 in assay [1] was found to be 3.2 nM; in assay [2], 15000 nM; in assay [3] it was 1500 nM; in assay [4], 1100 nM.

`NC/C(=C\F)Cn1ncn(Cc2ccc(-c3ccc4c(c3)CC(=O)N4)s2)c1=O` [Example 69, 5-[5-(1-[(2E)-2-(aminomethyl)-3-fluoroprop-2-en-1-yl]-5-oxo-1,5-dihydro-4H-1,2,4-triazol-4-ylmethyl)thiophen-2-yl]-1,3-dihydro-2H-indol-2-one hydrochloride]: the IC50 in assay [1] came to 0.1 nM; in assay [2], 70000 nM; in assay [3] it was 1800 nM; in assay [4], 1100 nM.

With `CCOc1ncc(-c2ccc(Cn3cnn(C/C(=C/F)CN)c3=O)s2)cn1` [Example 179, 2-[(2E)-2-(aminomethyl)-3-fluoroprop-2-en-1-yl]-4-{[5-(2-ethoxypyrimidin-5-yl)thiophen-2-yl]methyl}-2,4-dihydro-3H-1,2,4-triazol-3-one], the IC50 in assay [1] is 1.2 nM; in assay [2], more than 100000 nM; in assay [3], 8400 nM; in assay [4], 89 nM.

Regarding `NC/C(=C\F)Cn1ncn(Cc2ccc(-c3cnc(N4CCOCC4)nc3)s2)c1=O` [Example 57, 2-[(2E)-2-(aminomethyl)-3-fluoroprop-2-en-1-yl]-4-(5-[2-(morpholin-4-yl)pyrimidin-5-yl]thiophen-2-ylmethyl)-2,4-dihydro-3H-1,2,4-triazol-3-one hydrochloride], the IC50 is 2.2 nM in assay [1], 6600 nM in assay [2], 1600 nM in assay [3] and 83 nM in assay [4].

On to `NC/C(=C\F)Cn1ncn(Cc2ccc(Br)s2)c1=O` [Example 2, 2-[(2E)-2-(aminomethyl)-3-fluoroprop-2-en-1-yl]-4-[(5-bromothiophen-2-yl)methyl]-2,4-dihydro-3H-1,2,4-triazol-3-one hydrochloride], for which the 50% inhibitory concentration (IC50) in assay [1] is 5.2 nM; in assay [2], more than 100000 nM; in assay [3] it was 14 nM; in assay [4], 3300 nM.

As to `CC(=O)c1ccc(-c2ccc(Cn3cnn(C/C(=C/F)CN)c3=O)s2)s1` [Example 155, 4-[(5′-acetyl-2,2′-bithiophen-5-yl)methyl]-2-[(2E)-2-(aminomethyl)-3-fluoroprop-2-en-1-yl]-2,4-dihydro-3H-1,2,4-triazol-3-one], the IC50 in assay [1] is 0.4 nM; in assay [2], more than 100000 nM; in assay [3] it was 470 nM; in assay [4], 950 nM.

Consider `NC/C(=C\F)Cn1ncn(Cc2ccc(-c3ccc4c(c3)NC(=O)OC4)s2)c1=O` [Example 100, 7-[5-(1-[(2E)-2-(aminomethyl)-3-fluoroprop-2-en-1-yl]-5-oxo-1,5-dihydro-4H-1,2,4-triazol-4-ylmethyl)thiophen-2-yl]-1,4-dihydro-2H-3,1-benzoxazin-2-one hydrochloride], for which the IC50 in assay [1] was 0.1 nM; in assay [2] it was more than 100000 nM; in assay [3], 810 nM; in assay [4] it was 140 nM.

`NC/C(=C\F)Cn1ncn(Cc2ccc(-c3cnc4scnc4c3)s2)c1=O` [Example 64, 2-[(2E)-2-(aminomethyl)-3-fluoroprop-2-en-1-yl]-4-[5-([1,3]thiazolo[5,4-b]pyridin-6-yl)thiophen-2-yl]methyl-2,4-dihydro-3H-1,2,4-triazol-3-one hydrochloride]: the IC50 in assay [1] is 0.7 nM; in assay [2], 6700 nM; in assay [3] it was 2200 nM; in assay [4], 110 nM.

With `NC/C(=C\F)Cn1ncn(Cc2ccc(-c3cccc(-c4cc[nH]n4)c3)s2)c1=O` [Example 184, 2-[(2E)-2-(aminomethyl)-3-fluoroprop-2-en-1-yl]-4-({5-[3-(1H-pyrazol-3-yl)phenyl]thiophen-2-yl}methyl)-2,4-dihydro-3H-1,2,4-triazol-3-one], the IC50 was 3.4 nM in assay [1], more than 100000 nM in assay [2], 330 nM in assay [3] and 3800 nM in assay [4].
